In the NIST ThermoML archive (doi:10.1016/j.jct.2017.03.006):
± gives the expanded uncertainty stated by the source.

Columns and labels:
[1] = Liquid; for mass density: Vibrating tube method; for viscosity: Concentric cylinders viscometry
[2] = molar heat capacity at constant pressure; conditions: Liquid, Flow calorimetry

**Q.** Which mass density ([1]; 273.15 K, 100 kPa) does the source give for CCC(C)O (stereo not drawn) [butan-2-ol] here?
**A.** 822.3 ± 0.7 kg/m3

**Q.** And the mass density ([1]; 273.15 K, 1000 kPa)?
**A.** 822.7 ± 0.7 kg/m3

**Q.** And the mass density ([1]; 273.15 K, 2000 kPa)?
**A.** 823.4 ± 0.7 kg/m3

**Q.** And the mass density ([1]; 273.15 K, 5000 kPa)?
**A.** 825.4 ± 0.7 kg/m3

**Q.** What about the mass density ([1]; 273.15 K, 10000 kPa) of the same compound?
**A.** 828.7 ± 0.7 kg/m3

**Q.** What about the mass density ([1]; 273.15 K, 15000 kPa) of the same compound?
**A.** 831.8 ± 0.7 kg/m3

**Q.** And the mass density ([1]; 273.15 K, 20000 kPa)?
**A.** 834.7 ± 0.7 kg/m3

**Q.** And the mass density ([1]; 273.15 K, 30000 kPa)?
**A.** 840.4 ± 0.8 kg/m3

**Q.** What about the mass density ([1]; 273.15 K, 40000 kPa) of the same compound?
**A.** 845.7 ± 0.8 kg/m3

**Q.** What about the mass density ([1]; 273.15 K, 50000 kPa) of the same compound?
**A.** 850.7 ± 0.8 kg/m3

**Q.** And the mass density ([1]; 273.15 K, 60000 kPa)?
**A.** 855.4 ± 0.8 kg/m3

**Q.** What about the mass density ([1]; 273.15 K, 70000 kPa) of the same compound?
**A.** 859.9 ± 0.8 kg/m3

**Q.** What about the mass density ([1]; 273.15 K, 80000 kPa) of the same compound?
**A.** 864.3 ± 0.8 kg/m3

**Q.** And the mass density ([1]; 273.15 K, 90000 kPa)?
**A.** 868.4 ± 0.9 kg/m3

**Q.** And the mass density ([1]; 273.15 K, 100000 kPa)?
**A.** 872.4 ± 0.9 kg/m3

**Q.** And the mass density ([1]; 273.15 K, 110000 kPa)?
**A.** 876.3 ± 0.9 kg/m3

**Q.** What about the mass density ([1]; 273.15 K, 120000 kPa) of the same compound?
**A.** 879.9 ± 0.9 kg/m3

**Q.** What about the mass density ([1]; 273.15 K, 130000 kPa) of the same compound?
**A.** 883.5 ± 0.9 kg/m3

**Q.** And the mass density ([1]; 273.15 K, 140000 kPa)?
**A.** 887.2 ± 0.9 kg/m3

**Q.** And the viscosity ([1]; 293.15 K, 100 kPa)?
**A.** 3.725 ± 0.076 mPa·s

**Q.** What about the mass density ([1]; 293.15 K, 100 kPa) of the same compound?
**A.** 806.3 ± 0.7 kg/m3

**Q.** And the mass density ([1]; 293.15 K, 1000 kPa)?
**A.** 807 ± 0.7 kg/m3

**Q.** What about the mass density ([1]; 293.15 K, 2000 kPa) of the same compound?
**A.** 807.8 ± 0.7 kg/m3

**Q.** What about the mass density ([1]; 293.15 K, 5000 kPa) of the same compound?
**A.** 810 ± 0.7 kg/m3

**Q.** And the mass density ([1]; 293.15 K, 10000 kPa)?
**A.** 813.6 ± 0.7 kg/m3

**Q.** And the mass density ([1]; 293.15 K, 15000 kPa)?
**A.** 817 ± 0.7 kg/m3

**Q.** What about the mass density ([1]; 293.15 K, 20000 kPa) of the same compound?
**A.** 820.2 ± 0.7 kg/m3

**Q.** And the mass density ([1]; 293.15 K, 30000 kPa)?
**A.** 826.5 ± 0.8 kg/m3

**Q.** And the mass density ([1]; 293.15 K, 40000 kPa)?
**A.** 832.3 ± 0.8 kg/m3

**Q.** What about the mass density ([1]; 293.15 K, 50000 kPa) of the same compound?
**A.** 837.7 ± 0.8 kg/m3

**Q.** And the mass density ([1]; 293.15 K, 60000 kPa)?
**A.** 842.8 ± 0.8 kg/m3

**Q.** What about the mass density ([1]; 293.15 K, 70000 kPa) of the same compound?
**A.** 847.7 ± 0.8 kg/m3

**Q.** What about the mass density ([1]; 293.15 K, 80000 kPa) of the same compound?
**A.** 852.3 ± 0.9 kg/m3

**Q.** What about the mass density ([1]; 293.15 K, 90000 kPa) of the same compound?
**A.** 856.7 ± 0.9 kg/m3

**Q.** What about the mass density ([1]; 293.15 K, 100000 kPa) of the same compound?
**A.** 860.9 ± 0.9 kg/m3

**Q.** And the mass density ([1]; 293.15 K, 110000 kPa)?
**A.** 865 ± 0.9 kg/m3

**Q.** And the mass density ([1]; 293.15 K, 120000 kPa)?
**A.** 868.8 ± 1 kg/m3

**Q.** What about the mass density ([1]; 293.15 K, 130000 kPa) of the same compound?
**A.** 872.7 ± 1 kg/m3

**Q.** And the mass density ([1]; 293.15 K, 140000 kPa)?
**A.** 876.3 ± 1 kg/m3

**Q.** And the viscosity ([1]; 303.15 K, 100 kPa)?
**A.** 2.555 ± 0.053 mPa·s

**Q.** What about the viscosity ([1]; 313.15 K, 100 kPa) of the same compound?
**A.** 1.814 ± 0.038 mPa·s

**Q.** What about the mass density ([1]; 313.15 K, 100 kPa) of the same compound?
**A.** 789.4 ± 0.7 kg/m3

**Q.** And the mass density ([1]; 313.15 K, 1000 kPa)?
**A.** 790.1 ± 0.7 kg/m3

**Q.** And the mass density ([1]; 313.15 K, 2000 kPa)?
**A.** 791 ± 0.7 kg/m3

**Q.** And the mass density ([1]; 313.15 K, 5000 kPa)?
**A.** 793.5 ± 0.7 kg/m3

**Q.** What about the mass density ([1]; 313.15 K, 10000 kPa) of the same compound?
**A.** 797.5 ± 0.7 kg/m3

**Q.** What about the mass density ([1]; 313.15 K, 15000 kPa) of the same compound?
**A.** 801.4 ± 0.7 kg/m3

**Q.** And the mass density ([1]; 313.15 K, 20000 kPa)?
**A.** 805.1 ± 0.7 kg/m3

**Q.** And the mass density ([1]; 313.15 K, 30000 kPa)?
**A.** 811.9 ± 0.8 kg/m3

**Q.** What about the mass density ([1]; 313.15 K, 40000 kPa) of the same compound?
**A.** 818.3 ± 0.8 kg/m3

**Q.** What about the mass density ([1]; 313.15 K, 50000 kPa) of the same compound?
**A.** 824.1 ± 0.8 kg/m3

**Q.** What about the mass density ([1]; 313.15 K, 60000 kPa) of the same compound?
**A.** 829.6 ± 0.8 kg/m3

**Q.** And the mass density ([1]; 313.15 K, 70000 kPa)?
**A.** 835 ± 0.9 kg/m3

**Q.** What about the mass density ([1]; 313.15 K, 80000 kPa) of the same compound?
**A.** 839.9 ± 0.9 kg/m3

**Q.** What about the mass density ([1]; 313.15 K, 90000 kPa) of the same compound?
**A.** 844.6 ± 0.9 kg/m3

**Q.** What about the mass density ([1]; 313.15 K, 100000 kPa) of the same compound?
**A.** 849 ± 0.9 kg/m3

**Q.** And the mass density ([1]; 313.15 K, 110000 kPa)?
**A.** 853.3 ± 1 kg/m3

**Q.** What about the mass density ([1]; 313.15 K, 120000 kPa) of the same compound?
**A.** 857.5 ± 1 kg/m3

**Q.** What about the mass density ([1]; 313.15 K, 130000 kPa) of the same compound?
**A.** 861.5 ± 1 kg/m3

**Q.** And the mass density ([1]; 313.15 K, 140000 kPa)?
**A.** 865.4 ± 1 kg/m3

**Q.** And the viscosity ([1]; 323.15 K, 100 kPa)?
**A.** 1.331 ± 0.028 mPa·s

**Q.** And the viscosity ([1]; 333.15 K, 100 kPa)?
**A.** 1.007 ± 0.021 mPa·s

**Q.** And the mass density ([1]; 333.15 K, 100 kPa)?
**A.** 770.7 ± 0.7 kg/m3

**Q.** And the mass density ([1]; 333.15 K, 1000 kPa)?
**A.** 771.6 ± 0.7 kg/m3

**Q.** And the mass density ([1]; 333.15 K, 2000 kPa)?
**A.** 772.6 ± 0.7 kg/m3

**Q.** And the mass density ([1]; 333.15 K, 5000 kPa)?
**A.** 775.5 ± 0.7 kg/m3

**Q.** What about the mass density ([1]; 333.15 K, 10000 kPa) of the same compound?
**A.** 780.1 ± 0.7 kg/m3

**Q.** What about the mass density ([1]; 333.15 K, 15000 kPa) of the same compound?
**A.** 784.4 ± 0.7 kg/m3

**Q.** What about the mass density ([1]; 333.15 K, 20000 kPa) of the same compound?
**A.** 788.6 ± 0.7 kg/m3

**Q.** And the mass density ([1]; 333.15 K, 30000 kPa)?
**A.** 796.2 ± 0.8 kg/m3

**Q.** And the mass density ([1]; 333.15 K, 40000 kPa)?
**A.** 803.2 ± 0.8 kg/m3

**Q.** And the mass density ([1]; 333.15 K, 50000 kPa)?
**A.** 809.6 ± 0.8 kg/m3

**Q.** What about the mass density ([1]; 333.15 K, 60000 kPa) of the same compound?
**A.** 815.7 ± 0.9 kg/m3

**Q.** What about the mass density ([1]; 333.15 K, 70000 kPa) of the same compound?
**A.** 821.4 ± 0.9 kg/m3

**Q.** What about the mass density ([1]; 333.15 K, 80000 kPa) of the same compound?
**A.** 826.7 ± 0.9 kg/m3

**Q.** What about the mass density ([1]; 333.15 K, 90000 kPa) of the same compound?
**A.** 831.8 ± 0.9 kg/m3

**Q.** What about the mass density ([1]; 333.15 K, 100000 kPa) of the same compound?
**A.** 836.6 ± 1 kg/m3

**Q.** What about the mass density ([1]; 333.15 K, 110000 kPa) of the same compound?
**A.** 841.2 ± 1 kg/m3

**Q.** And the mass density ([1]; 333.15 K, 120000 kPa)?
**A.** 845.5 ± 1 kg/m3

**Q.** What about the mass density ([1]; 333.15 K, 130000 kPa) of the same compound?
**A.** 849.8 ± 1.1 kg/m3

**Q.** What about the mass density ([1]; 333.15 K, 140000 kPa) of the same compound?
**A.** 853.9 ± 1.1 kg/m3

**Q.** And the “molar heat capacity at constant pressure” value ([2]; 293.15 K, 100 kPa)?
**A.** 189.1 ± 2.7 J/K/mol

**Q.** What about the “molar heat capacity at constant pressure” value ([2]; 293.15 K, 5000 kPa) of the same compound?
**A.** 187.1 ± 2.6 J/K/mol

**Q.** What about the “molar heat capacity at constant pressure” value ([2]; 293.15 K, 10000 kPa) of the same compound?
**A.** 185.5 ± 2.6 J/K/mol

**Q.** And the “molar heat capacity at constant pressure” value ([2]; 293.15 K, 15000 kPa)?
**A.** 185.2 ± 2.6 J/K/mol

**Q.** What about the “molar heat capacity at constant pressure” value ([2]; 293.15 K, 20000 kPa) of the same compound?
**A.** 183.6 ± 2.6 J/K/mol

**Q.** And the “molar heat capacity at constant pressure” value ([2]; 293.15 K, 25000 kPa)?
**A.** 182.7 ± 2.6 J/K/mol

**Q.** What about the “molar heat capacity at constant pressure” value ([2]; 313.15 K, 100 kPa) of the same compound?
**A.** 214.9 ± 3 J/K/mol

**Q.** What about the “molar heat capacity at constant pressure” value ([2]; 313.15 K, 5000 kPa) of the same compound?
**A.** 213.1 ± 3 J/K/mol

**Q.** What about the “molar heat capacity at constant pressure” value ([2]; 313.15 K, 10000 kPa) of the same compound?
**A.** 211.1 ± 3 J/K/mol

**Q.** What about the “molar heat capacity at constant pressure” value ([2]; 313.15 K, 15000 kPa) of the same compound?
**A.** 209.4 ± 2.9 J/K/mol

**Q.** And the “molar heat capacity at constant pressure” value ([2]; 313.15 K, 20000 kPa)?
**A.** 207.2 ± 2.9 J/K/mol

**Q.** And the “molar heat capacity at constant pressure” value ([2]; 313.15 K, 25000 kPa)?
**A.** 204.9 ± 2.9 J/K/mol
